Experiments:
[1] = Bioavailability and pharmacokinetics of ShK-235 in circulation of healthy rats; assay type: in vivo, rat
Experimental: To test whether the intestinal environment interferes with LrS235 secretion of ShK-235, or prevents it from crossing into the circulation, healthy rats were gavaged with a single bolus of 1×10^9 CFU of either LrGusA or LrS235, both after SppIP induction, and 6 hours later, sera was collected and the ability of serum samples to block Kv1.3 channels tested by whole-cell patch-clamp.
Sera was taken at various timepoints ranging from 3 hours to 72 hours after the single bolus of LrS235. Peak levels of ShK-235 were detected 6 hours after LrS235 delivery, with the range of functional activity from 3 hours to 48 hours post-gavage (FIG. 8C).
Bioavailability and pharmacokinetics of ShK-235 after oral delivery. Male rats received a single oral gavage of either 1×10^9 cfus LrS235 or an enteric-coated capsule filled with ShK-235. Blood was collected via the saphenous vein at the different time points indicated in the figure, the last blood draw being a terminal cardiac puncture (48). Serum samples were assayed for Kv1.3 block by patch-clamp electrophysiology.

[2] = tested on: DTH reaction mediated by antigen-specific TEM lymphocytes; assay: Active delayed-type hypersensitivity (DTH) reaction against ovalbumin in the ear; assay type: in vivo, rat
Experimental: Then, it was assessed if LrS235 gavage could reduce a delayed-type hypersensitivity (DTH) reaction in the ear of rats, a local autoinflammation mediated by antigen-specific TEM lymphocytes. […] In contrast, treatment with LrGusA, capsules filled with ShK-235 or gelatin, and supernatants from the culture of the LrS235 had no effects on inflammation.
Induction and monitoring of an active delayed-type hypersensitivity reaction. Male and female rats were immunized in the flanks with 200 μl of a 1:1 emulsion of ovalbumin (Sigma, St. Louis, MO) in complete Freund's adjuvant (Difco/Becton Dickinson, Franklin Lakes, NJ)(25). After 7 days, under isoflurane anesthesia, the rats were challenged with ovalbumin dissolved in saline in the pinna of one ear; the collateral ear was injected with saline (49). Rats received either a single subcutaneous injection of 0.1 mg/kg ShK-235 or P6N vehicle, a single oral gavage of 1×10^9 cfus LrS235 or LrGusA, oral gavage of 1 ml supernatant of LrS235, or a capsule filled with ShK-235 or gelatin immediately before the ear challenge. The DTH reaction was measured 24 hours post-challenge as the thickness of the ear using a spring-loaded micrometer (Mitutoyo, Japan) and ear inflammation was determined by comparing the ear thickness of the ovalbumin-challenged with the saline-challenged ear from each (49). The animals were euthanized after the ear measurements.

[3] = Pharmacokinetics following oral or subcutaneous administration in healthy and CIA rats; conditions: rat, in vivo
Experimental: Pharmacokinetics following oral or subcutaneous administration of LrS235. Pharmacokinetics following oral or subcutaneous administration of LrS235 are conducted to determine the efficacy of ShK-235 entry into the circulation after its delivery via LrS235, an oral capsule, or subcutaneous injection, and the duration for which the peptide can be detected in the blood after a single bolus or repeated administration to rats with the CIA model of RA. The circulating levels of ShK-235 are quantified with two complementary and well-established techniques, mass spectrometry and single-cell patch-clamp, as the inventors and others have done with ShK, ShK analogs, and other Kv1.3 channel modulators^6,16,37,47-49,65. Tandem liquid chromatography triple quadrupole mass spectrometry (LC-QQQ-MS) is commonly used to rapidly detect and quantify small molecules and peptides for pharmacokinetics. As a complement, single-cell patch-clamp allows for the detection and quantification of functional peptide. This quantitative method (FIG. 9) has a low pM detection limit for the functional peptide. This technique has been validated and used to detect ShK-235 in the circulation of rats administrated the peptide via a capsule or via LrS235 (FIG. 8). […]

[4] = tested on: human and rat TEM cells; conditions: cited from earlier work

CC[C@H](C)[C@@H]1NC(=O)[C@H](CO)NC(=O)[C@H](Cc2c[nH]cn2)NC(=O)[C@H](CCCCN)NC(=O)[C@@H]2CSSC[C@@H]3NC(=O)[C@H]([C@@H](C)O)NC(=O)[C@H](CCCCN)NC(=O)[C@H](CCCNC(=N)N)NC(=O)[C@H](CSSC[C@H](NC(=O)[C@H](CCCNC(=N)N)NC(=O)[C@H](CO)NC(=O)[C@H](CCCCN)NC(=O)[C@@H]4CCCN4C(=O)[C@H]([C@@H](C)CC)NC(=O)[C@H]([C@@H](C)O)NC(=O)[C@H](CC(=O)O)NC(=O)[C@H]([C@@H](C)CC)NC(=O)[C@@H](NC(=O)[C@H](CO)NC(=O)[C@@H](N)CCCNC(=N)N)CSSC[C@@H](C(=O)N[C@@H](C)C(=O)O)NC(=O)[C@H]([C@@H](C)O)NC(=O)CNC3=O)C(=O)N[C@@H]([C@@H](C)O)C(=O)N[C@@H](C)C(=O)N[C@@H](Cc3ccccc3)C(=O)N[C@@H](CCCCN)C(=O)N2)NC(=O)[C@H](Cc2ccccc2)NC(=O)[C@H](CO)NC(=O)[C@H](CC(C)C)NC(=O)[C@H](CCCNC(=N)N)NC(=O)[C@H](Cc2ccc(O)cc2)NC(=O)[C@H](CCCCN)NC1=O [ShK-235]
Serum levels of ShK-235 after enteric-coated capsule ([1]; oral ACRYL-EZE coated capsule filled with 0.3 mg ShK-235): no measurable serum levels | level at time molar ([1]; rat, in vivo, injection of 0.1 mg/kg, read-out: Level detected in the circulation after injection): 0.6 to 0.8 nM | Effect on ear inflammation ([2]; oral enteric-coated capsule filled with ShK-235): no effects | Reduction of ear inflammation compared with vehicle control ([2]; single subcutaneous injection 0.1 mg/kg): 58% | Detection of ShK-235 in the circulation [3]: detected | Effect on activation and function of human and rat naïve and TCM cells [4]: little to no effect | Inhibition of activation of human and rat TEM cells [4]: preferentially inhibits

From patent publication US20250213627A1, “RECOMBINANT MICROORGANISM-BASED METHODS AND COMPOSITIONS FOR TREATMENT OF DISEASE” (Baylor College of Medicine, priority 2021, published 2025)
